Results reported in US9102678B2, “Compounds and methods for inhibiting mitotic progression” (Millennium Pharmaceuticals, Inc., priority 2004, dated 2015).

target: T1, recombinant murine Aurora A enzyme (Mus musculus, UniProt P97477); experiment: Aurora A DELFIA Kinase Assay; type: biochemical; details: mouse Aurora A, 250 μM ATP; threshold less than or equal to 100 nM; read-out: IC50
T1 construct: hexahistidine (His6) (N); made in house; host or cells: insect cells, baculovirus (Bac-to-Bac, Invitrogen)
T1 sequence (P97477 whole entry): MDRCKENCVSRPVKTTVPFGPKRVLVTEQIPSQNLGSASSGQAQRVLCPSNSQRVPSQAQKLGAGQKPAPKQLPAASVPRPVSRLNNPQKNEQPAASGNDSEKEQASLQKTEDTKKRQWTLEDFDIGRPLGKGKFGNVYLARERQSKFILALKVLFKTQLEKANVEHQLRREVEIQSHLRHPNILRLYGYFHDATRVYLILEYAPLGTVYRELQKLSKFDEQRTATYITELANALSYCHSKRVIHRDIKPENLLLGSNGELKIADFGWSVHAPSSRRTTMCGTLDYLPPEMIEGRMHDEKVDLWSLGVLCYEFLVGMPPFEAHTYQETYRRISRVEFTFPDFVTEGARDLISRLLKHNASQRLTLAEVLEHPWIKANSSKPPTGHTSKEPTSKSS
Text: Recombinant mouse Aurora A with an amino-terminus hexahistidine tag (His-Aurora A) was expressed using a standard baculovirus vector and insect cell expression system (Bac-to-Bac®, Invitrogen).
Soluble, recombinant mouse Aurora A was purified from insect cells using Ni-NTA agarose (Qiagen) as described by the manufacturer and further purified over an S75 size exclusion column (Amersham Pharmacia Biotech).
Aurora A DELFIA® Kinase Assay
The enzymatic reaction mixture, with and without Aurora inhibitors, was incubated for 15 minutes at room temperature before termination with 100 μL of stop buffer (1% BSA, 0.05% Surfact-AMPS-20, and 100 mM EDTA). A total of 100 μL of the enzyme reaction mixture was transferred to wells of a Neutravidin-coated 96-well plate (Pierce) and incubated at room temperature for 30 minutes. The wells were washed with wash buffer (25 mM Tris, 150 mM sodium chloride, and 0.1% Tween 20) and incubated for 1 hour with 100 μL of antibody reaction mixture containing 1% BSA, 0.05% Surfact-AMPS-20, anti-phospho-PKA rabbit polyclonal antibody (1:2000, New England Biolabs), and europium labeled anti-rabbit IgG (1:2000, Perkin Elmer). The wells were washed and then the bound europium was liberated using 100 μL of Enhancement Solution (Perkin Elmer). Quantification of europium was done using a Wallac™ EnVision (Perkin Elmer).

SMILES | IC50
O=C(c1ccc(Nc2ncc3c(n2)-c2ccc(Cl)cc2C(c2ccccc2F)=NC3)cc1Cl)N1CCN(CCN2CCCC2)CC1 [Compound I-213, 9-chloro-N-(3-chloro-4-{[4-(2-pyrrolidin-1-ylethyl)piperazin-1-yl]carbonyl}phenyl)-7-(2-fluorophenyl)-5H-pyrimido[5,4-d][2]benzazepin-2-amine] | ≤ 100 nM
CC(C)(N)C(=O)Nc1ccc(Nc2ncc3c(n2)-c2ccc(Cl)cc2C(c2c(F)cccc2F)=NC3)cc1 [Compound I-308, 2-amino-N-(4-{[9-chloro-7-(2,6-difluorophenyl)-5H-pyrimido[5,4-d][2]benzazepin-2-yl]amino}phenyl)-2-methylpropanamide] | ≤ 100 nM
NC(=O)C1(N)CCN(C(=O)c2ccc(Nc3ncc4c(n3)-c3ccc(Cl)cc3C(c3c(F)cccc3F)=NC4)cc2)CC1 [Compound I-350, 4-amino-1-(4-{[9-chloro-7-(2,6-difluorophenyl)-5H-pyrimido[5,4-d][2]benzazepin-2-yl]amino}benzoyl)piperidine-4-carboxamide] | ≤ 100 nM
COc1cccc(F)c1C1=NCc2cnc(Nc3ccc(C(=O)N4CCN(C)CC4)cc3)nc2-c2ccc(Cl)cc21 [Compound I-233, 9-chloro-7-(2-fluoro-6-methoxyphenyl)-N-{4-[(4-methylpiperazin-1-yl)carbonyl]phenyl}-5H-pyrimido[5,4-d][2]benzazepin-2-amine] | ≤ 100 nM
COc1cccc(Nc2ncc3c(n2)-c2ccc(C(=O)O)cc2C(c2c(F)cccc2F)=NC3)c1 [Compound I-353, 7-(2,6-difluorophenyl)-2-[(3-methoxyphenyl)amino]-5H-pyrimido[5,4-d][2]benzazepine-9-carboxylic acid] | ≤ 100 nM
CCN(CC)CCCN1CCN(C(=O)c2ccc(Nc3ncc4c(n3)-c3ccc(Cl)cc3C(c3ccccc3F)=NC4)cc2)CC1 [Compound I-208, 9-chloro-N-[4-({4-[3-(diethylamino)propyl]piperazin-1-yl}carbonyl)phenyl]-7-(2-fluorophenyl)-5H-pyrimido[5,4-d][2]benzazepin-2-amine] | ≤ 100 nM
CNC1CCN(C(=O)c2csc(Nc3ncc4c(n3)-c3ccc(Cl)cc3C(c3c(F)cccc3F)=NC4)n2)C1 (stereo not drawn) [Compound I-367, 9-chloro-7-(2,6-difluorophenyl)-N-(4-{[3-(methylamino)pyrrolidin-1-yl]carbonyl}-1,3-thiazol-2-yl)-5H-pyrimido[5,4-d][2]benzazepin-2-amine] | ≤ 100 nM
COc1cccc(F)c1C1=NCc2cnc(Nc3ccc(C(=O)N4CCC(N)C4)cc3)nc2-c2ccc(Cl)cc21 (stereo not drawn) [Compound I-240] | ≤ 100 nM
CN(C)C1CCN(C(=O)c2cccc(Nc3ncc4c(n3)-c3ccc(Cl)cc3C(c3c(F)cccc3F)=NC4)c2)CC1 [Compound I-205, 9-chloro-7-(2,6-difluorophenyl)-N-(3-{[4-(dimethylamino)piperidin-1-yl]carbonyl}phenyl)-5H-pyrimido[5,4-d][2]benzazepin-2-amine] | ≤ 100 nM
CN(C)CCCN(C)C(=O)c1ccc(Nc2ncc3c(n2)-c2ccc(Cl)cc2C(c2ccccc2F)=NC3)cc1 [Compound I-7, 4-[9-Chloro-7-(2-fluoro-phenyl)-5H-benzo[c]pyrimido[4,5-e]azepin-2-ylamino]-N-(3-dimethylamino-propyl)-N-methyl-benzamide] | ≤ 100 nM
CN(CCc1ccccn1)C(=O)c1ccc(Nc2ncc3c(n2)-c2ccc(Cl)cc2C(c2ccccc2F)=NC3)cc1 [Compound I-160, 4-[9-Chloro-7-(2-fluoro-phenyl)-5H-benzo[c]pyrimido[4,5-e]azepin-2-ylamino]-N-methyl-N-(2-pyridin-2-yl-ethyl)-benzamide] | ≤ 100 nM
O=C(c1ccc(Nc2ncc3c(n2)-c2ccc(Cl)cc2C(c2c(F)cccc2F)=NC3)cc1)N1CCNCC1 [Compound I-195, {4-[9-Chloro-7-(2,6-difluoro-phenyl)-5H-benzo[c]pyrimido[4,5-e]azepin-2-ylamino]-phenyl}-piperazin-1-yl-methanone] | ≤ 100 nM
COc1ccccc1C1=NCc2cnc(Nc3ccc(C(=O)NCCCN4CCOCC4)cc3)nc2-c2ccc(Cl)cc21 [Compound I-32, 4-[9-Chloro-7-(2-methoxy-phenyl)-5H-benzo[c]pyrimido[4,5-e]azepin-2-ylamino]-N-(3-morpholin-4-yl-propyl)-benzamide] | ≤ 100 nM
O=C(O)C1CN(C(=O)c2ccc(Nc3ncc4c(n3)-c3ccc(Cl)cc3C(c3c(F)cccc3F)=NC4)cc2)CCN1 (stereo not drawn) [Compound I-266, 4-(4-{[9-chloro-7-(2,6-difluorophenyl)-5H-pyrimido[5,4-d][2]benzazepin-2-yl]amino}benzoyl)piperazine-2-carboxylic acid] | ≤ 100 nM
CN(C)C1CN(C(=O)c2cccc(Nc3ncc4c(n3)-c3ccc(Cl)cc3C(c3c(F)cccc3F)=NC4)c2)C1 [Compound I-204, 9-chloro-7-(2,6-difluorophenyl)-N-(3-{[3-(dimethylamino)azetidin-1-yl]carbonyl}phenyl)-5H-pyrimido[5,4-d][2]benzazepin-2-amine] | ≤ 100 nM
NC1CCN(C(=O)c2ccc(Nc3ncc4c(n3)-c3ccc(Cl)cc3C(c3ccccc3F)=NC4)cc2)CC1 [Compound I-17, (4-Amino-piperidin-1-yl)-{4-[9-chloro-7-(2-fluoro-phenyl)-5H-benzo[c]pyrimido[4,5-e]azepin-2-ylamino]-phenyl}-methanone] | ≤ 100 nM
CN(C)CCCN1CCN(C(=O)c2ccc(Nc3ncc4c(n3)-c3ccc(Cl)cc3C(c3ccccc3F)=NC4)cc2)CC1 [Compound I-210, 9-chloro-N-[4-({4-[3-(dimethylamino)propyl]piperazin-1-yl}carbonyl)phenyl]-7-(2-fluorophenyl)-5H-pyrimido[5,4-d][2]benzazepin-2-amine] | ≤ 100 nM
CNCCNC(=O)c1ccc(Nc2ncc3c(n2)-c2ccc(Cl)cc2C(c2ccccc2F)=NC3)cc1 [Compound I-1, 4-[9-Chloro-7-(2-fluoro-phenyl)-5H-benzo[c]pyrimido[4,5-e]azepin-2-ylamino]-N-(2-methylamino-ethyl)-benzamide] | ≤ 100 nM
CN(C)C1CCN(C(=N)NC(=O)c2ccc(Nc3ncc4c(n3)-c3ccc(Cl)cc3C(c3c(F)cccc3F)=NC4)cc2)C1 (stereo not drawn) [Compound I-237, 4-[9-Chloro-7-(2,6-difluoro-phenyl)-5H-benzo[c]pyrimido[4,5-e]azepin-2-ylamino]-N-[(3-dimethylamino-pyrrolidin-1-yl)-imino-methyl]-benzamide] | ≤ 100 nM
CN(C)C1CCCN(C(=O)c2ccc(Nc3ncc4c(n3)-c3ccc(Cl)cc3C(c3c(F)cccc3F)=NC4)cc2)C1 (stereo not drawn) [Compound I-293, 9-chloro-7-(2,6-difluorophenyl)-N-(4-{[3-(dimethylamino)piperidin-1-yl]carbonyl}phenyl)-5H-pyrimido[5,4-d][2]benzazepin-2-amine] | ≤ 100 nM
COc1ccccc1C1=NCc2cnc(Nc3ccc(C(=O)NCCCN4CCN(C)CC4)cc3)nc2-c2ccc(Cl)cc21 [Compound I-22, 4-[9-Chloro-7-(2-methoxy-phenyl)-5H-benzo[c]pyrimido[4,5-e]azepin-2-ylamino]-N-[3-(4-methyl-piperazin-1-yl)-propyl]-benzamide] | ≤ 100 nM
NC1CN(C(=O)c2ccc(Nc3ncc4c(n3)-c3ccc(Cl)cc3C(c3ccccc3C(F)(F)F)=NC4)cc2)C1 [Compound I-296, N-{4-[(3-aminoazetidin-1-yl)carbonyl]phenyl}-9-chloro-7-[2-(trifluoromethyl)phenyl]-5H-pyrimido[5,4-d][2]benzazepin-2-amine] | ≤ 100 nM
CNC(=O)c1ccc2c(c1)C(c1c(F)cccc1F)=NCc1cnc(Nc3ccc(C(=O)N4CC(C)NC(C)C4)cc3)nc1-2 (stereo not drawn) [Compound I-376, 7-(2,6-difluorophenyl)-2-({4-[(3,5-dimethylpiperazin-1-yl)carbonyl]phenyl}amino)-N-methyl-5H-pyrimido[5,4-d][2]benzazepine-9-carboxamide] | ≤ 100 nM
Cc1ccccc1C1=NCc2cnc(Nc3ccc(C(=O)O)cc3)nc2-c2ccc(Cl)cc21 [Compound I-54, 4-(9-Chloro-7-o-tolyl-5H-benzo[c]pyrimido[4,5-e]azepin-2-ylamino) -benzoic acid] | ≤ 100 nM
COc1cccc(F)c1C1=NCc2cnc(Nc3cccc(C(=O)N4CCC(N(C)C)CC4)c3)nc2-c2ccc(Cl)cc21 [Compound I-229, 9-chloro-N-(3-{[4-(dimethylamino)piperidin-1-yl]carbonyl}phenyl)-7-(2-fluoro-6-methoxyphenyl)-5H-pyrimido[5,4-d][2]benzazepin-2-amine] | ≤ 100 nM
CNC1CCN(C(=O)c2ccc(Nc3ncc4c(n3)-c3ccc(Cl)cc3C(c3ccccc3OC)=NC4)cc2)CC1 [Compound I-331, 9-chloro-7-(2-methoxyphenyl)-N-(4-{[4-(methylamino)piperidin-1-yl]carbonyl}phenyl)-5H-pyrimido[5,4-d][2]benzazepin-2-amine] | ≤ 100 nM
O=C(c1ccc(Nc2ncc3c(n2)-c2ccc(Cl)cc2C(c2ccccc2F)=NC3)cc1)N1CCN(CCN2CCCCC2)CC1 [Compound I-182, {4-[9-Chloro-7-(2-fluoro-phenyl)-5H-benzo[c]pyrimido[4,5-e]azepin-2-ylamino]-phenyl}-[4-(2-piperidin-1-yl-ethyl)-piperazin-1-yl]-methanone] | ≤ 100 nM
